Structure (SMILES) | melting point [°C]
Cc1ccc(NC(=O)C(C)C)o1 | 78
CC1(S(C)(=O)=O)C(I)=C(S(C)(=O)=O)C=CC1C(=O)O (configuration not stated) | 66 to 67
O=C=NC1(N=NC2(N=C=O)CCCCC2)CCCCC1 | 38 to 40
C#CCOc1cc(C2(C(F)(F)F)CC(=O)NC(OCC)=N2)c(F)cc1Br (configuration not stated) | 101 to 102
CCOC(=O)C(=O)c1oc(-n2ccnc2C)nc1-c1ccc(Cl)cc1 | 126 to 127
C=C(C)COc1ccc(C(=O)C=Cc2ccc(F)cc2)c2oc3ccccc3c(=O)c12 | 135 to 137
Cc1cc(NC(=S)Nc2cc(Cl)ccc2C)sn1 | 187 to 188
CC(C)(C)c1ccc(O[C@@H]2CCC[C@H]2O)c(C(C)(C)C)c1 (relative stereo) | 112
Cn1nc(-c2cccc(-n3ncc4cc(C(C)(C)C)cc(F)c4c3=O)c2CO)cc(Nc2cnc([C@H](O)CO)cn2)c1=O | 218 to 224
C=C(C)c1cccc2c(C(=O)O)cccc12 | 138 to 140
CC(C)c1ccccc1Sc1c(O)cc(-c2cccc(Cl)c2)oc1=O | 177 to 178
CCCc1ccc(S(=O)(=O)n2c(CCC(=O)OC)cc3cc(Cl)ccc32)cc1 | 85 to 88
COc1ccc2nc3c(C)ccc([N+](=O)[O-])c3c(Cl)c2c1 | 227 to 228
COc1cc(C(=O)c2ncc3ccc(NS(C)(=O)=O)cn23)ccc1[N+](=O)[O-] | 249
C=C1CC2(C)CC(=O)C(C)(C)C12 (configuration not stated) | -23 to -20
CCn1c2cc(C=O)ccc2c2c3ccccc3ccc21 | 148 to 149
Nc1cc(-c2ccc(C(F)(F)F)cc2)no1 | 142 to 144
Cn1cnc(=S)c(-c2cccc(C(F)(F)F)c2)c1 | 197 to 200
CCOc1ccc(C2=NN(c3ccc(C(=O)N4CCS(=O)(=O)CC4)cc3)C(=O)[C@H]3CC=CC[C@@H]23)cc1OCC (relative stereo) | 186 to 187
CC(C)(C)OC(=O)NCCCc1ccccc1C=CC(=O)O | 122 to 126
CCn1cc(C(=O)O)c(=O)c2cc(OC)c(C3CCCCC3)cc21 | 176 to 178
NC(=S)c1ccccc1Nc1cccc(C(F)(F)F)c1 | 106 to 108
CC(C)C1C(=O)N(COC(=O)c2c(Cl)cccc2Cl)S(=O)(=O)N1C (configuration not stated) | 70 to 71.5
Fc1cccnc1N1CCC2(CC1)COOC2 | 45 to 47

Structure (SMILES) | melting point [°C]
CCOC(=O)c1cc(Br)c(OCCO)c(-c2cccc(Cl)c2)c1 | 108 to 110
CC1SC(=O)NN=C1c1ccc2c(c1)C(C)(C)C(=O)N2C(=O)c1ccccc1 (configuration not stated) | 200
CC(=O)Nc1ccc(C(NC(c2ccccc2)c2ccccc2)P(O)O)cc1 (configuration not stated) | 196 to 200
O=C(N[C@H](CN1CCC(OC2c3ccccc3CCc3ccccc32)CC1)C(=O)O)OCc1ccccc1 | 128 to 130
CC(c1oc2ccccc2c(=O)c1-c1cccc(F)c1)n1nc(-c2ccc3c(c2)OCCCO3)c2c(N)ncnc21 (configuration not stated) | 234 to 237
Cc1c(N)cccc1OC1CCN(C(=O)OC(C)(C)C)C1 (configuration not stated) | 137
C[C@H](CSC(=O)c1ccccc1)C(=O)N(CC(=O)OC(C)(C)C)C1CCCC1 | 54 to 56
CC1(C)CC(=C(c2ccccc2)c2ccc(OCCOCCO)cc2)CC(C)(C)C1 | 116 to 117
Cc1cn(-c2ccc(C(=O)N3Cc4cccn4Cc4ccccc43)cc2)cn1 | 140 to 145
C=CCCc1ccc(C#N)c(O)n1 | 122 to 125
O=C(C=Cc1cc(O)c(O)cc1O)OCCc1ccccc1 | 146 to 149
COc1cc(COc2nn(Cc3ccccc3)cc2/C=C/C(=O)O)ccc1OCc1nc(-c2ccco2)oc1C | 175 to 176
COc1cc(C=O)nnc1OC | 179 to 181
CCOc1cc(C2CC=CN(C(=O)c3ccc(NC(=O)OCCCN(C)C)cc3)N2)ccc1OC (configuration not stated) | 193
CCn1cc(C(=O)O)c(=O)c2ccc(N3CCN(c4ncccn4)CC3)c(OC(F)F)c21 | > 300
CCOC(=NS(=O)(=O)c1ccccc1)N1Cc2ccccc2-c2ccccc2C1 | 146 to 150
N#Cc1cccc(-c2ccc(O)c(-c3nc4cc(C#N)ccc4[nH]3)c2)c1 | 348 to 350
COc1cc2c(cc1OC)CCCCC(C(=O)O)=C2 | 200 to 201
Cc1ccc(C(N)=S)c2ccccc12 | 143 to 145
O=C1NC(=O)c2c1c(-c1ccccc1)cc1[nH]c3ccc(OP(=O)(OCc4ccccc4)OCc4ccccc4)cc3c21 | 193 to 194
COc1cc(-c2c(Cl)c(CN3C(=O)CCC3=O)nc3sc4c(c23)CCNC4)ccc1OC(C)C | 175 to 176
COC(=O)CCNc1cc(Oc2ccc(Cl)cc2Cl)ccc1[N+](=O)[O-] | 115
CC1SC(=O)NN=C1c1ccc2c(c1)C(C)(C)C(=O)N2C(=O)c1cccnc1 (configuration not stated) | 245
